Patent publication US5712109A, “Antifungal agent produced by arthrinium arundinis ATCC 74359” (Merck & Co., Inc., priority 1997, dated 1998)
Converted amounts (≈) assume the structure as drawn.

How the values were obtained:
Type in all cases: cell-based
[1] = tested on: Candida albicans (MY1055); assay: broth microdilution antifungal assay, Candida albicans MY1055
Experimental: (§1) In the microbroth dilution assay, microorganisms were selected by streaking a yeast culture on Sabouraud dextrose agar (SDA) and incubating for 24-48 hours at 35°-37° C. Three to five characteristic colonies were selected and transferred to a fresh plate and incubated under similar conditions. From the regrowth, 3 to 5 colonies were selected and suspended in 10 milliliters of YM broth (Difco) and incubated for 4 hours at 35°-37° C. shaking at 225 rpm. The 4 hour broth cultures were adjusted optically to 86% transmission resulting in a concentration of 1-5×10^6 cfu/ml which was further diluted 1:100 in YNBD (yeast nitrogen base with 1% dextrose) to obtain a concentration of 1-5×10^4 cfu/ml for use as inocula. […]
(§2) The plates containing the diluted compounds were then inoculated with 75 μl/well of the appropriate microorganism and incubated for 48 hours at 35°-37° C. with MIC (minimum inhibitory concentration) determinations carded out after 24 hours of incubation (except Cryptococcus strains which are read at 48 hours). […]
(§3) After recording M/Cs at 24 hours, the microtiter plates were shaken gently to resuspend the cells. […] For Cryptococcus neoformans, SDA plates were inoculated at 48 hours after recording MICs and incubated 48 hours before reading the MFG. […]

[2] = tested on: Candida glabrata (MY1381); assay: broth microdilution antifungal assay, Candida glabrata MY1381; settings: Nakaseomyces glabratus
Experimental: as §1, §2, §3

[3] = tested on: Candida parapsilosis (MY1010); assay: broth microdilution antifungal assay, Candida parapsilosis MY1010; settings: Lodderomyces parapsilosis
Experimental: as §1, §2, §3

[4] = tested on: Candida pseudotropicalis (MY2099); assay: broth microdilution antifungal assay, Candida pseudotropicalis MY2099; settings: Kluyveromyces marxianus
Experimental: as §1, §2, §3

[5] = tested on: Candida tropicalis (MY1124); assay: broth microdilution antifungal assay, Candida tropicalis MY1124
Experimental: as §1, §2, §3

[6] = tested on: Candida albicans (CLY539); assay: broth microdilution antifungal assay, Candida albicans CLY539
Experimental: as §1, §2, §3

[7] = tested on: Candida albicans (CA2); assay: broth microdilution antifungal assay, Candida albicans CA2
Experimental: as §1, §2, §3

[8] = tested on: Candida tropicalis (MY1012); assay: broth microdilution antifungal assay, Candida tropicalis MY1012
Experimental: as §1, §2, §3

[9] = tested on: Candida guillermondii (MY1019); assay: broth microdilution antifungal assay, Candida guillermondii MY1019
Experimental: as §1, §2, §3

[10] = tested on: Candida krusei; assay: broth microdilution antifungal assay, Candida krusei; settings: Pichia kudriavzevii
Experimental: as §1, §2, §3

[11] = tested on: Cryptococcus neoformans (MY2061); assay: broth microdilution antifungal assay, Cryptococcus neoformans MY2061
Experimental: (§4) In the microbroth dilution assay, microorganisms were selected by streaking a yeast culture on Sabouraud dextrose agar (SDA) and incubating for 24-48 hours at 35°-37° C. Three to five characteristic colonies were selected and transferred to a fresh plate and incubated under similar conditions. From the regrowth, 3 to 5 colonies were selected and suspended in 10 milliliters of YM broth (Difco) and incubated for 4 hours at 35°-37° C. shaking at 225 rpm. The 4 hour broth cultures were adjusted optically to 86% transmission resulting in a concentration of 1-5×10^6 cfu/ml which was further diluted 1:100 in YNBD (yeast nitrogen base with 1% dextrose) to obtain a concentration of 1-5×10^4 cfu/ml for use as inocula.
(§5) The test compound was dissolved at 256 μg/ml in 10% DMSO and diluted 2× into the first well to achieve a concentration of 256 μg/ml at 5% DMSO in the first well. Compounds are subsequently serially diluted 2× and cell suspension is added to each well resulting in an additional 2× dilution of compound. 75 μl of said solution is delivered to each well in colunto 1 of a 96-well, U-bottomed plate. […]
as §3

[12] = tested on: Cryptococcus neoformans (MY2062); assay: broth microdilution antifungal assay, Cryptococcus neoformans MY2062
Experimental: as §4, §5, §3

[13] = tested on: Saccharomyces cerevisiae (MY2140); assay: broth microdilution antifungal assay, Saccharomyces cerevisiae MY2140
Experimental: as §1, §2, §3

[14] = tested on: Aspergillus fumigatus (MY4839); assay: broth microdilution antifungal assay, Aspergillus fumigatus MY4839
Experimental: as §1, §2
(§6) No MFC values are indicated for Aspergillus furnigatus since colony counts are unreliable with filamentous species. […] The MEC is scored macroscopically by direct observation of the plate wells after 24 hours and reflects microscopic alterations in cell morphology (Kurtz et al, AAC 1994 38:1480-1489).

[15] = tested on: Aspergillus fumigatus (MY5668); assay: broth microdilution antifungal assay, Aspergillus fumigatus MY5668
Experimental: as §1, §2, §6

[16] = tested on: panel of fungi; assay: broth microdilution antifungal assay, panel of fungi, comparison with amphotericin B; settings: MIC/MFC broth microdilution assay
Experimental: In the microbroth dilution assay, microorganisms were selected by streaking a yeast culture on Sabouraud dextrose agar (SDA) and incubating for 24-48 hours at 35°-37° C. Three to five characteristic colonies were selected and transferred to a fresh plate and incubated under similar conditions. From the regrowth, 3 to 5 colonies were selected and suspended in 10 milliliters of YM broth (Difco) and incubated for 4 hours at 35°-37° C. shaking at 225 rpm. […]
as §2, §3, §6

[17] = tested on: filamentous fungi; assay: agar plate inhibition zone test against filamentous fungi; settings: agar plates, 28° C. or 37° C., 24 hours
Experimental: The compound is also useful for inhibiting the growth of filamentous fungi. Such use may be illustrated in the following tests with Aspergillus flavus, Fusarium oxysporum, Ustilago zeae and the like. Inocula for filamentous fungi are prepared by scraping the surface of stock plates maintained on potato dextrose agar with a moistened sterile dacron swab. The spores and mycelia are then suspended in 10 milliliters of sterile potato dextrose broth and adjusted to 70 percent transmission at 660 nm. The samples to be tested for production of antifungal agent are applied directly to the agar plates as methanol solutions. When the sample to be tested is crude broth, it may be centrifuged prior to application. The assay plates are then incubated at either 28° C. or 37° C. for 24 hours. Following incubation, the inhibition zones are measured. Effects on growth are also noted as to appearance.

[18] = 24 hours, 35°-37° C., read-out: Minimum Inhibitory Concentration (MIC)
[19] = no growth or growth of ≤4 colonies on SDA, read-out: Minimum Fungicidal Concentration (MFC)
[20] = SDA incubated 48 hours, no growth or growth of ≤4 colonies, read-out: Minimum Fungicidal Concentration (MFC)
[21] = read at 48 hours, 35°-37° C., read-out: Minimum Inhibitory Concentration (MIC)
[22] = severe morphological change, scored macroscopically after 24 hours, read-out: Minimum Effective Concentration (MEC)

## CC(CCC(O)C(C)(O)CO)C1(O)CCC2(C)C3=C(CCC21C)C1(C)CCC(OC(=O)CCC(=O)O)C(C)(C)C1CC3 (centres unmarked) [Compound I]
[1]; [18]
  MIC: 4 µg/mL (≈ 6.75 µM)
[1]; [19]
  MFC: 4 µg/mL (≈ 6.75 µM)
[2]; [18]
  MIC: 2 µg/mL (≈ 3.37 µM)
[2]; [19]
  MFC: 1 µg/mL (≈ 1.69 µM)
[3]; [18]
  MIC: 4 µg/mL (≈ 6.75 µM)
[3]; [19]
  MFC: 2 µg/mL (≈ 3.37 µM)
[4]; [18]
  MIC: 8 µg/mL (≈ 13.5 µM)
[4]; [19]
  MFC: 8 µg/mL (≈ 13.5 µM)
[5]; [18]
  MIC: 8 µg/mL (≈ 13.5 µM)
[5]; [19]
  MFC: 8 µg/mL (≈ 13.5 µM)
[6]; [18]
  MIC: 2 µg/mL (≈ 3.37 µM)
[6]; [19]
  MFC: 2 µg/mL (≈ 3.37 µM)
[7]; [18]
  MIC: 16 µg/mL (≈ 27 µM)
[7]; [19]
  MFC: 16 µg/mL (≈ 27 µM)
[8]; [18]
  MIC: 16 µg/mL (≈ 27 µM)
[8]; [19]
  MFC: 16 µg/mL (≈ 27 µM)
[9]; [18]
  MIC: 64 µg/mL (≈ 108 µM)
[9]; [19]
  MFC: 64 µg/mL (≈ 108 µM)
[10]; [18]
  MIC: 4 µg/mL (≈ 6.75 µM)
[10]; [19]
  MFC: 2 µg/mL (≈ 3.37 µM)
[11]; [20]
  MFC: 32 µg/mL (≈ 54 µM)
[11]; [21]
  MIC: > 64 µg/mL
[12]; [20]
  MFC: 64 µg/mL (≈ 108 µM)
[12]; [21]
  MIC: 32 µg/mL (≈ 54 µM)
[13]; [18]
  MIC: 8 µg/mL (≈ 13.5 µM)
[13]; [19]
  MFC: 8 µg/mL (≈ 13.5 µM)
[14]; [18]
  MIC: > 64 µg/mL
[14]; [22]
  minimal effective concentration: 0.5 µg/mL
[15]; [18]
  MIC: 64 µg/mL (≈ 108 µM)
[15]; [22]
  minimal effective concentration: 1 µg/mL
[16]
  effectiveness against a panel of fungi relative to amphotericin B: at concentrations comparable to an established antifungal agent, amphotericin B
[17]
  inhibition of growth of the fungal organisms (inhibition zones): effectively inhibit growth of the fungal organisms
